Columns and labels:
Assay type in all cases: in vivo
[1] = system: Alternaria solani; assay: Alternaria solani / tomato / preventative (Alternaria on tomato); conditions: tomato plants cv. Roter Gnom, inoculated two days after application, vs untreated control, read-out: disease control
Protocol: (§1) Alternaria solani/Tomato/Preventative (Alternaria on Tomato) 4-week old tomato plants cv. Roter Gnom are treated with the formulated test compound in a spray chamber. The test plants are inoculated by spraying them with a spore suspension two days after application. The inoculated test plants are incubated at 22/18° C. (day/night) and 95% rh in a greenhouse and the percentage leaf area covered by disease is assessed when an appropriate level of disease appears on untreated check plants (5-7 days after application).

[2] = system: Botryotinia fuckeliana (Botrytis cinerea); assay: Botryotinia fuckeliana (Botrytis cinerea) / tomato / preventative (Botrytis on tomato); conditions: tomato plants cv. Roter Gnom, inoculated two days after application, vs untreated control, read-out: disease control
Protocol: as §1, with “Botryotinia fuckeliana (Botrytis cinerea)/Tomato/Preventative (Botrytis” for “Alternaria solani/Tomato/Preventative (Alternaria”, “20°” for “22/18°”, “C.” for “C. (day/night)”, “(5-6” for “(5-7”

[3] = system: Erysiphe necator (Uncinula necator); assay: Erysiphe necator (Uncinula necator) / grape / preventative (powdery mildew on grape); conditions: grape seedlings cv. Gutedel, inoculated 1 day after application, vs untreated control, read-out: disease control
Protocol: Erysiphe necator (Uncinula necator)/Grape/Preventative (Powdery Mildew on Grape) 5-week old grape seedlings cv. Gutedel are treated with the formulated test compound in a spray chamber. The test plants are inoculated by shaking plants infected with grape powdery mildew above them 1 day after application. The inoculated test plants are incubated at 24/22° C. (day/night) and 70% rh under a light regime of 14/10 h (light/dark) and the percentage leaf area covered by disease is assessed when an appropriate level of disease appears on untreated check plants (7-9 days after application).

[4] = system: Mycosphaerella arachidis (Cercospora arachidicola); assay: Mycosphaerella arachidis (Cercospora arachidicola) / peanut / preventative; conditions: peanut plants cv. Georgia Green, inoculated one day after application, vs untreated control, read-out: disease control
Protocol: Mycosphaerella arachidis (Cercospora arachidicola)/Peanut/Preventative 3-week old peanut plants cv. Georgia Green are treated with the formulated test compound in a spray chamber. The test plants are inoculated by spraying them with a spore suspension on their lower leaf surface one day after application. After an incubation period of 4 days under a plastic hood at 23° C. and 100% rh, the test plants are kept at 23° C./20° C. (day/night) and 70% rh in a greenhouse. The percentage leaf area covered by disease is assessed when an appropriate level of disease appears on untreated check plants (12-14 days after application).

[5] = system: Phytophthora infestans; assay: whole plant or invertebrate; conditions: in Solanum tuberosum, read-out: disease control
[6] = system: Plasmopara viticola; assay: Plasmopara viticola / grape / preventative (grape downy mildew); conditions: grape seedlings cv. Gutedel, inoculated one day after application, vs untreated control, read-out: disease control
Protocol: Plasmopara viticola/Grape/Preventative (Grape Downy Mildew)
5-week old grape seedlings cv. Gutedel are treated with the formulated test compound in a spray chamber. The test plants are inoculated by spraying a sporangia suspension on their lower leaf surface one day after application. The inoculated test plants are incubated at 22° C. and 100% rh in a greenhouse and the percentage leaf area covered by disease is assessed when an appropriate level of disease appears on untreated check plants (6-8 days after application).

[7] = system: Pyrenophora teres (Helminthosporium teres); assay: Pyrenophora teres (Helminthosporium teres) / barley / preventative (net blotch on barley); conditions: barley plants cv. Regina, inoculated 2 days after application, vs untreated control, read-out: disease control
Protocol: Pyrenophora teres (Helminthosporium teres)/Barley/Preventative (Net Blotch on Barley) 1-week old barley plants cv. Regina are treated with the formulated test compound in a spray chamber. The test plants are inoculated by spraying them with a spore suspension 2 days after application. The inoculated test plants are incubated at 20° C. and 95% rh and the percentage leaf area covered by disease is assessed when an appropriate level of disease appears on untreated check plants (5-7 days after application).

[8] = system: Phaeosphaeria nodorum (Septoria nodorum); assay: Phaeosphaeria nodorum (Septoria nodorum) / wheat / leaf disc preventative (glume blotch); conditions: Parastagonospora nodorum, foliar, wheat leaf segments cv. Kanzler on agar, inoculated 2 days after application, vs untreated control, read-out: disease control
Outline: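 Wheat cv. Kanzler leaf segments on agar sprayed with formulated compound in water, inoculated with spore suspension 2 days later. Incubated at 20° C., 75% rh, 12 h light/12 h dark; percent disease control versus untreated scored when untreated discs show damage (5-7 days after application).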

[9] = system: Mycosphaerella graminicola (Septoria tritici); assay: Mycosphaerella graminicola (Septoria tritici) / wheat / preventative (Septoria tritici leaf spot on wheat); conditions: Zymoseptoria tritici, wheat plants cv. Riband, inoculated one day after application, vs untreated control, read-out: disease control
Protocol: Mycosphaerella graminicola (Septoria tritici)/Wheat/Preventative (Septoria tritici Leaf Spot on Wheat) 2-week old wheat plants cv. Riband are treated with the formulated test compound in a spray chamber. The test plants are inoculated by spraying a spore suspension on them one day after application. After an incubation period of 1 day at 22° C./21° C. (day/night) and 95% rh, the test plants are kept at 22° C./21° C. (day/night) and 70% rh in a greenhouse. The percentage leaf area covered by disease is assessed when an appropriate level of disease appears on untreated check plants (16-19 days after application).

Measured: pest or weed control at 200 ppm

Cc1cc(F)ccc1-c1cccc(-c2ncc3ccccc3n2)n1 [2/55]
not listed: [8] | [9]
≥ 80%: all other assays above

COc1cccc(-c2cccc(-c3ncc4ccccc4n3)n2)c1F [2/60]
≥ 80%: [1] | [2] | [5] | [6] | [8]

Cc1ccc(-c2ncc3ccccc3n2)nc1-c1ccccc1 [3/71]
not listed: [3] | [4] | [8]
≥ 80%: all other assays above

Cc1ccc(-c2ncc3ccccc3n2)nc1-c1ccc(F)cc1 [3/72]
≥ 80%: [1] | [2] | [5] | [6] | [7]

Cc1cccc(-c2nc(-c3ncc4ccccc4n3)ccc2C)c1 [3/75]
not listed: [7] | [8]
≥ 80%: all other assays above

Cc1ccccc1-c1nc(-c2ncc3ccccc3n2)ccc1C [3/76]
not listed: [3] | [8]
≥ 80%: all other assays above

Cc1ccc(-c2ncc3ccccc3n2)nc1-c1cccc(F)c1 [3/77]
≥ 80%: [1] | [9] | [5] | [6]

Cc1cc(-c2nc(-c3ncc4ccccc4n3)ccc2C)ccc1F [3/85]
not listed: [8]
≥ 80%: all other assays above

Cc1ccc(-c2ncc3ccccc3n2)nc1-c1ccc(F)c(F)c1 [3/89]
not listed: [5] | [8]
≥ 80%: all other assays above

Cc1ccc(-c2ncc3ccccc3n2)nc1-c1cc(F)cc(F)c1 [3/90]
not listed: [8]
≥ 80%: all other assays above

COc1ccc(-c2nc(-c3ncc4ccccc4n3)ccc2C)cc1F [3/92, 2-[6-(3-fluoro-4-methoxy-phenyl)-5-methylpyridin-2-yl]-quinazoline]
not listed: [8]
≥ 80%: all other assays above

Cc1ccc(-c2ncc3ccccc3n2)nc1Oc1ccccc1 [5/18]
≥ 80%: [1] | [2] | [5] | [6] | [7]

Clc1cccc(Cc2cccc(-c3ncc4ccccc4n3)n2)c1 [6/11]
not listed: [5] | [6] | [8]
≥ 80%: all other assays above

Cc1cccc(Cc2cccc(-c3ncc4ccccc4n3)n2)c1F [6/12]
not listed: [5] | [6] | [8]
≥ 80%: all other assays above

c1ccc(Cc2cccc(-c3ncc4ccccc4n3)n2)cc1 [6/17, 2-(6-benzylpyridin-2-yl)-quinazoline]
not listed: [8] | [9]
≥ 80%: all other assays above

Cc1ccc(-c2ncc3ccccc3n2)nc1Cc1ccccc1 [7/17]
≥ 80%: [1] | [4] | [9] | [5]

Cc1ccc(-c2nc(C)c3ccccc3n2)nc1-c1ccccc1 [11/8, 4-Methyl-2-(5-methyl-6-phenyl-pyridin-2-yl)-quinazoline]
not listed: [2] | [5] | [8]
≥ 80%: all other assays above
